{"source": "patent US12433863B2", "about": "“Pharmaceutical compositions and uses directed to lysosomal storage disorders” (INTRABIO LIMITED, priority 2016, dated 2025)", "key": {"[1]": {"test_system": "wild-type (Npc1^+/+) mice", "experiment": "In vivo mouse study in wild-type (Npc1+/+) littermates (weight, gait, motor function)", "experimental": "Wild-type (Npc1^+/+) littermates were used as a control.\nSeparate groups of Npc1^−/− and Npc1^+/+ mice were left untreated, as controls.\nAnimals were weighed twice a week. Weights were averaged (mean) across all mice in each group and compared.\nGait analysis was performed on mice at eight weeks of age using a CatWalk® 15.0 system according to manufacturer's instructions (Noldus, Nottingham, UK). Five runs were recorded per animal.\nCatWalk® parameters measured were: • 1. Stand Mean: average duration (s) of paws in contact with glass plate; • 2. Step Cycle: duration (s) between two consecutive contacts of the same paw; • 3. Duty Cycle: percentage of time paws in contact with plate compared with time to complete a step cycle; • 4. Step Sequence (AB): percentage of time spent walking in LF-RH-RF-LH alternating pattern (LF: left front; RH: right hind; RF: right front; LH left hind); • 5. Cadence: step per seconds in a trial; • 6. Diagonal Support: percentage of time with simultaneous contact of diagonal paws with the glass plate (RF&LH or RH&LF). Motor Function Analysis\nMotor function analysis was performed on mice at eight and nine weeks of age using an Open Field Activity Monitor according to manufacturer's instructions (Linton Instruments, Amlogger Software). Each mouse was placed in a plastic cage with bedding and analysed for five minutes. Rears were counted manually.\nMotor function parameters measured were: • 1. Centre Rearing: mice rearing on hind legs unsupported; • 2. Rearing: mice rearing on hind legs with and without the support of cage walls; • 3. Activity: regular movement of the animal including walks; • 4. Front to Back (FR) count: movement of the animal from front to back of the cage; • 5. Active Time: duration (s/min) of activeness regardless of movement; • 6. Mobile Time: duration (s/min) of mobility; • 7. Rearing Time: duration of any rearing."}, "[2]": {"test_system": "patients with Niemann-Pick Type C (NPC)", "conditions": "one-month study, 12 NPC patients; Bremova et al. 2015; cited from earlier work"}, "[3]": {"test_system": "Hexb^−/− mouse (Sandhoff disease model)", "experiment": "Sandhoff disease mouse model (lifespan, bar crossing test, step cycle)", "format": "in vivo", "experimental": "This study made use of a mouse model of Sandhoff disease, the Hexb^−/− mouse, as described in Jeyakumar et al. (Jeyakumar, M. et al. (1999) Proc. Natl. Acad. Sci. USA 96: 6388-6393).\nWild-type (Hexb^+/+) mice were used as controls.\nIn FIG. 7A, acetyl-leucine-treated mice were treated with 0.1 g/kg acetyl-leucine from 3 weeks of age. The asterisks (*) indicates a p-value of <0.05 vs untreated Sandhoff mice. Data is average of n=6 mice per group. Without treatment, the median survival time of Sandhoff mice was 112 days. Treatment with acetyl-leucine (0.1 g/kg body weight since 3 weeks of age) increased the median lifespan to 120 days.\nThe bar crossing test is a method for assessing motor function in mice in which the mouse is placed hanging from the centre of a horizontal bar by its front limbs. A wild-type mouse with normal motor function will be able to engage its hind limbs and thereby move to one of the platforms at either end of the bar, and in doing so complete the test.\nAn untreated Sandhoff mouse is able to complete the test up until around 11 weeks of age. After this point motor function and hind-limb mobility/engagement have deteriorated to the point to which the mouse cannot complete the test, and will drop from the bar onto the padded surface below.\nStep cycle is the length of time taken during locomotion by a limb from the time it leaves the ground until it leaves the ground on the next occasion.\nStep cycle time was assessed at 12 weeks of age in untreated and acetyl-leucine treated Sandhoff model mice. Acetyl-leucine treatment constituted 0.1 g/kg body weight acetyl-leucine from 3 weeks of age."}, "NPC patients": {"test_system": "NPC patients", "experiment": "Clinical severity score (CSS) and annual severity increment score (ASIS) in ten NPC patients", "format": "in vivo, human", "conditions": "4.5 g/day", "description": "An NPC patient's severity may be quantified by assigning a clinical severity score (CSS), which assesses various parameters of the disease and gives each parameter a score out of 5 (higher score =greater severity). See Yanjanin et al., “Linear Clinical Progression, Independent of Age of Onset, in Niemann-Pick Disease, Type C,” Am J Med Genet Part B 153B:132-140. In an untreated patient, one can typically predict how the CSS will change over time in an individual, as disease progression appears to be linear. For example, if Patient A moves from a CSS of 8 to a CSS of 12 between month 0 and month 12, it can be predicted that by month 36, the patient will have a CSS of 20. The annual severity increment score (ASIS) quantities the annual rate of change in the CSS, calculated by dividing the CSS of a patient by the patient's age. […] Each year, the patient would be expected to progress by 4 CSS points, such that at 4 years of age, the patient's CSS would be 16. If therapeutic intervention slowed or arrested disease progression, one would expect the patient to have a smaller ASIS score after such therapy than at baseline.\nTen NPC patients were administered acetyl-leucine at 4.5 g/day over long durations. A CSS was determined at baseline, and at various time points, for eye movement, ambulation, speech, swallow, fine motor skills, cognition, memory, and seizures. An overall CSS was calculated at baseline and at each such time point by adding the individual CSS values for each parameter (eye movement, ambulation, etc.).\nThe ASIS at baseline and each time point was calculated using each patient's CSS and age at the time of assessment. The overall ASIS for each patient at each time point is shown below in Table 15."}, "patients with ataxia": {"test_system": "patients with ataxia", "conditions": "Becker-Bense et al. 2015; cited from earlier work"}, "[4]": {"conditions": "one line per patient, days per Table 5, listed as acetyl-leucine"}, "[5]": {"conditions": "one line per patient, score out of 5, listed as acetyl-leucine"}}, "note": "Values joined by “and” are separate entries in the source; they are usually repeats but may differ in a detail not shown here. Equal values may be shown once."}
{"smiles": "CC(=O)NC(CC(C)C)C(=O)O", "note": "(racemic) [acetyl-DL-leucine]", "values": [{"measurement": "Effect on weight gain", "setting": "[1]; 0.1 g/kg from weaning, three to 10 weeks of age", "result": "no significant effect"}, {"measurement": "Gait properties versus untreated littermates", "setting": "[1]; 0.1 g/kg, eight weeks of age", "result": "no significant difference"}, {"measurement": "Motor function properties versus untreated littermates", "setting": "[1]; 0.1 g/kg, nine weeks of age", "result": "no significant difference"}, {"measurement": "Ataxia symptoms", "setting": "[2]", "result": "symptomatic improvement of ataxia"}, {"measurement": "Average step cycle time", "setting": "[3]; Sandhoff mice, 12 weeks of age, 0.1 g/kg from 3 weeks, p<0.001 vs untreated", "result": "significantly faster average step cycle times"}, {"measurement": "Hind step cycle time", "setting": "[3]; Sandhoff mice, 12 weeks of age, 0.1 g/kg from 3 weeks, p<0.01 vs untreated", "result": "significantly faster hind step cycle times"}, {"measurement": "Front step cycle time", "setting": "[3]; Sandhoff mice, 12 weeks of age, 0.1 g/kg from 3 weeks, p<0.05 vs untreated", "result": "significantly faster front step cycle times"}, {"measurement": "Motor function assessed via the bar-crossing test", "setting": "[3]; Sandhoff mouse model, 0.1 g/kg body weight from 3 weeks of age", "result": "improved motor function and hind-limb mobility/engagement"}, {"measurement": "Lifespan versus untreated Sandhoff mice", "setting": "[3]; Sandhoff mouse, 0.1 g/kg from 3 weeks of age, p<0.05", "result": "statistically significant increase in the lifespan"}, {"measurement": "CSS overall, Time Point 2", "setting": "NPC patients; one line per patient (Patient I.D 1-10), days per Table 5, listed as acetyl-leucine", "result": "33 and 12 (3×) and 13 and 23 and 19 and 22 and 11 (2×)"}, {"measurement": "CSS overall, Time Point 3", "setting": "NPC patients; [4]", "result": "33 and 11 (2×) and 10 (2×) and 12 and 21 (2×) and 19"}, {"measurement": "CSS overall, Time Point 4", "setting": "NPC patients; [4]", "result": "33 and 12 and 21"}, {"measurement": "CSS eye movement, Time Point 4", "setting": "NPC patients; one line per patient, score out of 5", "result": 3}, {"measurement": "CSS ambulation, Time Point 2", "setting": "NPC patients; [5]", "result": "5 and 1 (3×) and 2 (5×) and 4"}, {"measurement": "CSS ambulation, Time Point 4", "setting": "NPC patients; [5]", "result": "5 and 1 and 2"}, {"measurement": "CSS cognition, Time Point 2", "setting": "NPC patients; [5]", "result": "5 and 3 (5×) and 4 (3×) and 2"}, {"measurement": "CSS cognition, Time Point 3", "setting": "NPC patients; [5]", "result": "5 and 3 (5×) and 4 (3×)"}, {"measurement": "CSS cognition, Time Point 4", "setting": "NPC patients; [5]", "result": "5 and 3 and 4"}, {"measurement": "CSS eye movement, Time Point 2", "setting": "NPC patients; [5]", "result": "3 (9×) and 2"}, {"measurement": "CSS eye movement, Time Point 3", "setting": "NPC patients; [5]", "result": "3 (7×) and 2 (2×)"}, {"measurement": "CSS fine motor skills, Time Point 2", "setting": "NPC patients; [5]", "result": "5 and 1 (6×) and 4 (2×) and 2"}, {"measurement": "CSS fine motor skills, Time Point 3", "setting": "NPC patients; [5]", "result": "5 and 1 (5×) and 4 (2×) and 2"}, {"measurement": "CSS fine motor skills, Time Point 4", "setting": "NPC patients; [5]", "result": "5 and 1 and 4"}, {"measurement": "CSS memory, Time Point 2", "setting": "NPC patients; [5]", "result": "4 (3×) and 1 (5×) and 3 and 0"}, {"measurement": "CSS memory, Time Point 3", "setting": "NPC patients; [5]", "result": "4 (2×) and 0 (2×) and 1 (3×) and 3 (2×)"}, {"measurement": "CSS memory, Time Point 4", "setting": "NPC patients; [5]", "result": "4 and 1 and 3"}, {"measurement": "CSS seizures, Time Point 2", "setting": "NPC patients; [5]", "result": "5 and 0 (9×)"}, {"measurement": "CSS seizures, Time Point 3", "setting": "NPC patients; [5]", "result": "5 and 0 (8×)"}, {"measurement": "CSS seizures, Time Point 4", "setting": "NPC patients; [5]", "result": "5 and 0 (2×)"}, {"measurement": "CSS speech, Time Point 2", "setting": "NPC patients; [5]", "result": "2 (4×) and 1 (6×)"}, {"measurement": "CSS speech, Time Point 3", "setting": "NPC patients; [5]", "result": "2 (3×) and 1 (6×)"}, {"measurement": "CSS speech, Time Point 4", "setting": "NPC patients; [5]", "result": "2 (2×) and 1"}, {"measurement": "CSS swallow, Time Point 2", "setting": "NPC patients; [5]", "result": "4 and 2 (5×) and 3 (3×) and 0"}, {"measurement": "CSS swallow, Time Point 3", "setting": "NPC patients; [5]", "result": "4 and 2 (4×) and 3 (3×) and 0"}, {"measurement": "CSS swallow, Time Point 4", "setting": "NPC patients; [5]", "result": "4 and 2 and 3"}, {"measurement": "Change in overall CSS over the course of the experiment", "setting": "NPC patients; ten NPC patients", "result": "none of the ten patients showed an overall increase in CSS"}, {"measurement": "Brain metabolism by PET", "setting": "patients with ataxia", "result": "increased metabolism in the midbrain and lower brainstem in responders"}]}
